Like-named read-outs stand apart in the source and are kept apart here.
Columns and labels:
Format in all cases: cell-based
tumor cell = experiment: Matrigel outgrowth assay/branching assay (Table Va)
Summary of the method: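 Cells (5000/well) were seeded onto polymerized 3 mg/ml Matrigel with compound at 3.125, 1.56 or 0.78 μM, or DMSO. Imaging by inverted microscopy at 48, 72 and 96 h scored invasive branching. Only concentrations giving total branching inhibition counted as positive.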

MDA-MB231 = experiment: Cell vitality assay (ATP assay, CellTiter-Glo); settings: Homo sapiens, MDA-MB-231; cell vitality assay, MDA-MB231; Table IIc; read-out: IC50 MDA-MB231
Summary of the method: (§1)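 1000 cells/well incubated 72 h with compound at 12.5 down to 0.195 μM (twofold steps) or DMSO control. Viability measured as cellular ATP by CellTiter-Glo luminescence; IC50 taken as the concentration giving 50% of the DMSO-control ATP level.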

Hs578T = experiment: Wound healing migration assay; settings: Homo sapiens, Hs-578T; HS578T cell line; Table Ib
Summary of the method: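 Cells seeded at 150000/24 well, grown to monolayer overnight, scratched with a pipette tip, then treated with compound at 12.5, 6.25 or 3.125 μM versus DMSO. Stopped by crystal violet fixation at 48-72 h once control wounds closed; IC50 taken as 50% wound size between t0 and t48 or t72.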

A172 = experiment: Cell vitality assay (ATP assay, CellTiter-Glo); settings: Homo sapiens, A 172; A172, 72 h; Table IIa; read-out: IC50 ATP-Assay after 72 h A172
Summary of the method: as §1

viable cells in culture = experiment: Cell viability assay at 10 μM (CellTiter-Glo, Table VII); settings: compound 10 μM, 72 h;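 further: graded A 0-20%; B 21-40%; C 41-60%; D over 60% viable cells relative to DMSO control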
Summary of the method: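 Viable cell number was measured with the CellTiter-Glo Luminescent Cell Viability Assay (Promega), following the manufacturer's protocol, which quantifies ATP as a marker of metabolically active cells. In 96-well plates, 1000 cells/well in 100 μl medium were exposed to compound at 10 μM, or to DMSO control, for 72 h. Values were calculated relative to DMSO-control ATP.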

[1] = Homo sapiens, C8161 cells, read-out: Total branching inhibition in Matrigel C8161
[2] = Homo sapiens, Hs-578T, Hs578T cells, read-out: Total branching inhibition in Matrigel Hs578T
[3] = U118 cells, read-out: Total branching inhibition in Matrigel U118
[4] = U138 cells, read-out: Total branching inhibition in Matrigel U138

| SMILES | IC50 (Hs578T) | IC50 (A172) | other results |
| --- | --- | --- | --- |
| COc1cc2c(Oc3ccc(NS(=O)(=O)c4ccccc4C(F)(F)F)cc3F)ccnc2cc1OCCCN1CCN(C)CC1 [Example 24, N-(3-Fluoro-4-{6-methoxy-7-[3-(4-methyl-piperazin-1-yl)-propoxy]-quinolin-4-yloxy}-phenyl)-2-trifluoromethyl-benzenesulfonamide] | – | – | IC50 (tumor cell; [1]): ≤ 5 µM; IC50 (tumor cell; [2]): ≤ 5 µM; IC50 (tumor cell; [3]): ≤ 5 µM; IC50 (tumor cell; [4]): 5 to 50 µM; IC50 (MDA-MB231): ≤ 12.5 µM |
| COc1cc2c(Oc3ccc(NS(=O)(=O)c4cccc(Cl)c4F)cc3F)ccnc2cc1OCCCN1CCCC(C)C1 (centres unmarked) [Example 54, 3-Chloro-2-fluoro-N-(3-fluoro-4-{6-methoxy-7-[3-(3-methyl-piperidin-1-yl)-propoxy]-quinolin-4-yloxy}-phenyl)-benzenesulfonamide] | ≤ 12.5 µM | ≤ 12.5 µM | – |
| COC(=O)c1sccc1S(=O)(=O)Nc1ccc(Oc2ccnc3cc(OCCCN4CCCC(C)C4)c(OC)cc23)c(F)c1 (centres unmarked) [Example 66, 3-(3-Fluoro-4-{6-methoxy-7-[3-(3-methyl-piperidin-1-yl)-propoxy]-quinolin-4-yloxy}-phenylsulfamoyl)-thiophene-2-carboxylic acid methyl ester] | ≤ 12.5 µM | ≤ 12.5 µM | IC50 (tumor cell; [1]): ≤ 5 µM; IC50 (tumor cell; [2]): ≤ 5 µM; IC50 (tumor cell; [3]): ≤ 5 µM; IC50 (tumor cell; [4]): 5 to 50 µM; IC50 (MDA-MB231): ≤ 12.5 µM |
| COc1cc2c(Oc3ccc(NS(=O)(=O)c4ccccc4OC(F)(F)F)cc3F)ccnc2cc1OCCCN1CCCCC1 [Example 78, N-{3-Fluoro-4-[6-methoxy-7-(3-piperidin-1-yl-propoxy)-quinolin-4-yloxy]-phenyl}-2-trifluoromethoxy-benzenesulfonamide] | ≤ 12.5 µM | ≤ 12.5 µM | – |
| COc1cc2c(Oc3ccc(NS(=O)(=O)c4ccccc4C(F)(F)F)cc3F)ccnc2cc1OCCCN(C)C [Example 100, N-{4-[7-(3-Dimethylamino-propoxy)-6-methoxy-quinolin-4-yloxy]-3-fluoro-phenyl}-2-trifluoromethyl-benzenesulfonamide] | ≤ 12.5 µM | ≤ 12.5 µM | viability at 10 µM (viable cells in culture; Homo sapiens, HCT-116, HCT116 def, read-out: percentage (%) of viable cells HCT 116def): 0 to 20%; viability at 10 µM (viable cells in culture; Homo sapiens, HCT-116, HCT116 wt, read-out: percentage (%) of viable cells HCT 116wt): 0 to 20%; viability at 10 µM (viable cells in culture; Homo sapiens, HT-29, HT29, read-out: percentage (%) of viable cells HT29): 21 to 40%; viability at 10 µM (viable cells in culture; Homo sapiens, NCI-H358, H358, read-out: percentage (%) of viable cells H358): 0 to 20%; viability at 10 µM (viable cells in culture; Homo sapiens, NCI-H1650, H1650, read-out: percentage (%) of viable cells H1650): 21 to 40%; viability at 10 µM (viable cells in culture; Homo sapiens, NCI-H1666, H1666, read-out: percentage (%) of viable cells H1666): 21 to 40%; viability at 10 µM (viable cells in culture; Homo sapiens, NCI-H1975, H1975, read-out: percentage (%) of viable cells H1975): 41 to 60%; viability at 10 µM (viable cells in culture; Homo sapiens, NCI-H1993, H1993, read-out: percentage (%) of viable cells H1993): 41 to 60%; viability at 10 µM (viable cells in culture; Homo sapiens, A549, read-out: percentage (%) of viable cells A549): > 60%; viability at 10 µM (viable cells in culture; Homo sapiens, HCC827, read-out: percentage (%) of viable cells HCC827): 21 to 40%; viability at 10 µM (viable cells in culture; Homo sapiens, SW480, read-out: percentage (%) of viable cells SW480): 0 to 20%; viability at 10 µM (viable cells in culture; RKO, read-out: percentage (%) of viable cells RKO): 0 to 20%; IC50 (tumor cell; [1]): ≤ 5 µM; IC50 (tumor cell; [2]): ≤ 5 µM; IC50 (tumor cell; [3]): ≤ 5 µM; IC50 (tumor cell; [4]): 5 to 50 µM |
| COc1cc2c(Oc3ccc(NS(=O)(=O)c4c(Cl)cccc4Cl)cc3F)ccnc2cc1OCCN1CCOCC1 [Example 104, 2,6-Dichloro-N-{3-fluoro-4-[6-methoxy-7-(2-morpholin-4-yl-ethoxy)-quinolin-4-yloxy]-phenyl}-benzenesulfonamide] | ≤ 12.5 µM | 12.5 to 50 µM | – |
| COc1cc2c(Oc3ccc(NS(=O)(=O)c4c(F)cccc4F)cc3F)ccnc2cc1OCCCN1CCN(C)CC1 [Example 110, 2,6-Difluoro-N-(3-fluoro-4-{6-methoxy-7-[3-(4-methyl-piperazin-1-yl)-propoxy]-quinolin-4-yloxy}-phenyl)-benzenesulfonamide] | ≤ 12.5 µM | ≤ 12.5 µM | – |
| COc1cc2c(Oc3ccc(NS(=O)(=O)c4cc(F)ccc4F)cc3Cl)ccnc2cc1OCCCN1CCN(C)CC1 [Example 112, N-(3-Chloro-4-{6-methoxy-7-[3-(4-methyl-piperazin-1-yl)-propoxy]-quinolin-4-yloxy}-phenyl)-2,5-difluoro-benzenesulfonamide] | ≤ 12.5 µM | ≤ 12.5 µM | – |
| COc1cc2c(Oc3ccc(NS(=O)(=O)c4c(Cl)cccc4Cl)cc3Cl)ccnc2cc1OCCCN1CCN(C)CC1 [Example 119, 2,6-Dichloro-N-(3-chloro-4-{6-methoxy-7-[3-(4-methyl-piperazin-1-yl)-propoxy]-quinolin-4-yloxy}-phenyl)-benzenesulfonamide] | ≤ 12.5 µM | ≤ 12.5 µM | – |
| COC(=O)c1sccc1S(=O)(=O)Nc1ccc(Oc2ccnc3cc(OCCCN4CCCCC4)c(OC)cc23)c(F)c1 [Example 155, 3-{3-Fluoro-4-[6-methoxy-7-(3-piperidin-1-yl-propoxy)-quinolin-4-yloxy]-phenylsulfamoyl}-thiophene-2-carboxylic acid methyl ester] | ≤ 12.5 µM | ≤ 12.5 µM | – |
| COC(=O)c1sccc1S(=O)(=O)Nc1ccc(Oc2ccnc3cc(OCCCN4CCC(C)CC4)c(OC)cc23)c(F)c1 [Example 156, 3-(3-Fluoro-4-{6-methoxy-7-[3-(4-methyl-piperidin-1-yl)-propoxy]-quinolin-4-yloxy}-phenylsulfamoyl)-thiophene-2-carboxylic acid methyl ester] | ≤ 12.5 µM | ≤ 12.5 µM | – |
| COC(=O)c1sccc1S(=O)(=O)Nc1ccc(Oc2ccnc3cc(OCCCN4CCOCC4)c(OC)cc23)c(F)c1 [Example 157, 3-{3-Fluoro-4-[6-methoxy-7-(3-morpholin-4-yl-propoxy)-quinolin-4-yloxy]-phenylsulfamoyl}-thiophene-2-carboxylic acid methyl ester] | ≤ 12.5 µM | ≤ 12.5 µM | – |
| COC(=O)c1sccc1S(=O)(=O)Nc1ccc(Oc2ccnc3cc(OCCCN4CCN(C)CC4)c(OC)cc23)c(F)c1 [Example 158, 3-(3-Fluoro-4-{6-methoxy-7-[3-(4-methyl-piperazin-1-yl)-propoxy]-quinolin-4-yloxy}-phenylsulfamoyl)-thiophene-2-carboxylic acid methyl ester] | ≤ 12.5 µM | ≤ 12.5 µM | – |
| COc1cc2c(Oc3ccc(NS(=O)(=O)c4c(F)cccc4F)cc3F)ccnc2cc1OCCCN(C)C [Example 178, N-{4-[7-(3-Dimethylamino-propoxy)-6-methoxy-quinolin-4-yloxy]-3-fluoro-phenyl}-2,6-difluoro-benzenesulfonamide] | 12.5 to 50 µM | ≤ 12.5 µM | – |
| COc1cc2c(Oc3ccc(NS(=O)(=O)c4ccccc4OC(F)(F)F)cc3F)ccnc2cc1OCCCN(C)C [Example 179, N-{4-[7-(3-Dimethylamino-propoxy)-6-methoxy-quinolin-4-yloxy]-3-fluoro-phenyl}-2-trifluoromethoxy-benzenesulfonamide] | ≤ 12.5 µM | ≤ 12.5 µM | – |
| COc1cc2c(Oc3ccc(NS(=O)(=O)c4c(Cl)cccc4Cl)cc3F)ccnc2cc1OCCCN(C)C [Example 181, 2,6-Dichloro-N-{4-[7-(3-dimethylamino-propoxy)-6-methoxy-quinolin-4-yloxy]-3-fluoro-phenyl}-benzenesulfonamide] | ≤ 12.5 µM | ≤ 12.5 µM | – |
| COC(=O)c1sccc1S(=O)(=O)Nc1ccc(Oc2ccnc3cc(OCCCN(C)C)c(OC)cc23)c(F)c1 [Example 184, 3-{4-[7-(3-Dimethylamino-propoxy)-6-methoxy-quinolin-4-yloxy]-3-fluoro-phenylsulfamoyl}-thiophene-2-carboxylic acid methyl ester] | ≤ 12.5 µM | ≤ 12.5 µM | – |
| COc1cc2c(Oc3c(Cl)cc(NS(=O)(=O)c4c(F)cccc4F)cc3Cl)ccnc2cc1OCCCN1CCC(C)CC1 [Example 209, N-(3,5-Dichloro-4-{6-methoxy-7-[3-(4-methyl-piperidin-1-yl)-propoxy]-quinolin-4-yloxy}-phenyl)-2,6-difluoro-benzenesulfonamide] | ≤ 12.5 µM | ≤ 12.5 µM | – |
| COc1cc2c(Oc3c(Cl)cc(NS(=O)(=O)c4ccccc4C(F)(F)F)cc3Cl)ccnc2cc1OCCCN1CCC(C)CC1 [Example 210, N-(3,5-Dichloro-4-{6-methoxy-7-[3-(4-methyl-piperidin-1-yl)-propoxy]-quinolin-4-yloxy}-phenyl)-2-trifluoromethyl-benzenesulfonamide] | ≤ 12.5 µM | ≤ 12.5 µM | – |

Source: patent publication US9169241B2, “Quinolinyloxyphenylsulfonamides” (Max-Planck-Gesellschaft Zur Forderung der Wissenschaften …, priority 2009, dated 2015)
